From patent publication US11154519B2, “Inhibitors and their uses” (MEDICAL RESEARCH COUNCIL, priority 2015, dated 2021)

Legend:
[1] = tested on: HeLa cells; assay: Cytoprotection against ER stress (tunicamycin), IncuCyte; type: cell-based; conditions: Homo sapiens, 250 ng/ml Tunicamycin, 72 hours, compound 0-20 μM, read-out: Cytoprotection from Tm (compared to GNB)
Procedure: (§1) HeLa cells (40,000 cells/ml) were plated in a 96-well plate and treated with different concentrations (0-20 μM) of a compound as indicated in the presence of 250 ng/ml Tunicamycin for 72 hours. To monitor cell death 1/2000 dilution of the CellTox green dye (Promega) was added to the media. The growth of the cells was monitored over time and pictures taken every 2 hours with the IncuCyte ZOOM system and analysed by the IncuCyte ZOOM software (Essen BioScience). […] Cytoprotection against ER stress can be measured by a suitable assay. In this instance, cytoprotection was measured in HeLa cells in which ER stress was elicited by the addition of media containing tunicamycin, a drug that blocks N-glycosylation, thereby preventing protein folding and inducing the unfolded protein response. Cell viability was then detected in the presence and absence of a compound listed in Table 1 after a set period of time, by monitoring cell growth over time. Cytoprotection from ER stress was measured in terms of the percentage increase in viable cells (relative to control) after ER stress.

[2] = tested on: R15A or R15B; assay: Selective binding towards R15A or R15B (based on SPR); design: species or system human
Procedure: In one embodiment, the compounds of formula IB inhibit PPP1R15A and PPP1R15B. Inhibition of PPP1R15A and PPP1R15B can be determined from binding analysis. For example, binding can be analysed using SPR (surface plasmon resonance) to obtain KD values. A PPP1R15A and PPP1R15B inhibitor may be defined as a compound where the difference in KD values between R15A and R15B is no more than about 3 fold.
Small molecules were stored as 50 mM stock solutions in 100% DMSO. Prior to determining binding constants, serial dilutions of either 12 or 8 concentrations of the compounds were prepared in the running buffer in a 96-well plate. Prior to each compound dilution series the regulatory subunit, MBP-R15A^325-636-His or MBP-R15B^340-698-His, was diluted to 10 μM in the running buffer and captured on the bio-PP1c surface at a flow rate of 30 μl/min for 1 minute to form the holophosphatase complex on the sensor chip surface. This was followed by 1 minute stabilization period, to wash off any unspecific binding. Then, without regenerating the surface, the compound dilution series was injected onto the surface of the chip at a flow rate of 30 μl/min for 1 minute, followed by 2 minutes dissociation time. After each dilution series the surface was regenerated using 3 M NaCl for 90 seconds. After regeneration, SPR responses generally returned to base levels and the bio-PP1c surface was ready for the next compound dilution series. In order to be able to correct for small variations in DMSO concentration between samples, eight solvent samples ranging from 0.06 to 8% DMSO were injected every 50th cycle. The flow cell temperature was 10° C.
Sensorgrams were analyzed using the Biacore T200 evaluation software and the binding constants determined based on a steady-state model. Kinetic experiments are carried out using different concentrations of the compound and their respective equilibrium binding levels determined.

[3] = tested on: HeLa cells; assay: Cell death dose response (CellTox green, IncuCyte); type: cell-based; conditions: IncuCyte, 0-20 μM
Procedure: Toxicity of the compounds is assessed using Cell viability Counting Kit-8 (Dojindo) or in a Incucyte (Essenbioscience) using both phase contrast and IncuCyte™ Cytotox Green Reagent.
as §1
EC50 were extrapolated from dose response experiments on cell death. Data from IncuCyte was plotted and analysed in Prism. The “% of cell death” for each data point. For each concentration there is a % of cell death vs time, the area under the curve was taken and plotted against log conc=>EC50 (analysis in Prism).

| SMILES | Emax [1] [%] | Selective binding towards R15A or R15B (based on SPR) [2] | Effect on cell death [3] |
| --- | --- | --- | --- |
| [H]/N=C(\N)NN=Cc1cccnc1Cl [Compound 21, (E)-2-((2-chloropyridin-3-yl)methylene)hydrazine-1-carboximidamide] | 41 | R15AB (A PPP1R15A and PPP1R15B inhibitor may be defined as a compound where the difference in KD values between R15A and R15B is no more than about 3 fold) | No |
| [H]/N=C(\N)NN=Cc1ccc(Cl)nc1Cl [Compound 22, (E)-2-((2,6-dichloropyridin-3-yl)methylene)hydrazine-1-carboximidamide] | 48 | R15AB (A PPP1R15A and PPP1R15B inhibitor may be defined as a compound where the difference in KD values between R15A and R15B is no more than about 3 fold) | No |
| [H]/N=C(\N)NN=Cc1cccc(F)c1 [Compound 23, (E)-2-(3-fluorobenzylidene)hydrazine-1-carboximidamide] | 53 | R15AB (A PPP1R15A and PPP1R15B inhibitor may be defined as a compound where the difference in KD values between R15A and R15B is no more than about 3 fold) | No |
| [H]/N=C(\N)NN=Cc1cccc(Cl)c1 [Compound 24, (E)-2-(3-chlorobenzylidene)hydrazine-1-carboximidamide] | 62 | R15AB (A PPP1R15A and PPP1R15B inhibitor may be defined as a compound where the difference in KD values between R15A and R15B is no more than about 3 fold) | No |
| [H]/N=C(\N)NN=Cc1cc(Cl)ccc1Cl [Compound 26, (E)-2-(2,5-dichlorobenzylidene)hydrazine-1-carboximidamide] | 57 | R15AB (A PPP1R15A and PPP1R15B inhibitor may be defined as a compound where the difference in KD values between R15A and R15B is no more than about 3 fold) | No |
| [H]/N=C(\N)NN=Cc1cc(F)cc(F)c1Cl [Compound 29, (E)-2-(2-chloro-3,5-difluorobenzylidene)hydrazine-1-carboximidamide] | 62 | R15AB (A PPP1R15A and PPP1R15B inhibitor may be defined as a compound where the difference in KD values between R15A and R15B is no more than about 3 fold) | No |
| [H]/N=C(\N)NN=Cc1cccc(Cl)c1F [Compound 30, (E)-2-(3-chloro-2-fluorobenzylidene)hydrazine-1-carboximidamide] | 85 | R15AB (A PPP1R15A and PPP1R15B inhibitor may be defined as a compound where the difference in KD values between R15A and R15B is no more than about 3 fold) | No |
| [H]/N=C(\N)NN=Cc1c(Cl)ccc(Cl)c1Cl [Compound 31, (E)-2-(2,3,6-trichlorobenzylidene)hydrazine-1-carboximidamide] | 99 | R15AB (A PPP1R15A and PPP1R15B inhibitor may be defined as a compound where the difference in KD values between R15A and R15B is no more than about 3 fold) | No |
| [H]/N=C(\N)NN=Cc1cc(Cl)cc(Cl)c1 [Compound 34, (E)-2-(3,5-dichlorobenzylidene)hydrazine-1-carboximidamide] | 57 | R15AB (A PPP1R15A and PPP1R15B inhibitor may be defined as a compound where the difference in KD values between R15A and R15B is no more than about 3 fold) | No |
